From paper PMC10660337, “Mutate and Conjugate: A Method to Enable Rapid In-Cell Target Validation” (ACS Chemical Biology, 2023)
Values joined by “and” are separate entries in the source; they are usually repeats but may differ in a detail not shown here. Equal values may be shown once.

Assays:
[1] = test system: T1, StrepII-tagged BRD4(1)^L94C or BRD4(1)^WT in HEK293T cells; assay: Immunoprecipitation of StrepII-tagged bromodomains after in-cell labeling; type: cell-based, human; conditions: 10 µM probe, 1 h, anti-StrepII pull-down, in-gel fluorescence
T1 construct: the L94C mutation in the first bromodomain of BRD4 [BRD4(1)]; StrepII; expressed in transfected cells; host or cells: HEK293T
Description: Compound engagement with BRD4(1)^L94C was further validated by using an immunoprecipitation (IP) assay (Figure S22). Here, transfected HEK293T cells expressing StrepII-tagged BRD4(1)^L94C or StrepII-tagged BRD4(1)^WT were incubated with compound 42 before being lysed. The StrepII-tagged bromodomains were then pulled down using anti-StrepII antibodies, and the samples were separated by SDS-PAGE for analysis. […]
reaction mix was taken and 8 µL of Lamelli buffer added, and the samples denatured by heating at 95 °C for 10 min. Samples were separated by gel electrophoresis on NuPAGE™ 4–12%, Bis-Tris precast polyacrylamide gels (Thermofisher). Following electrophoresis, gels were stained for 15 min with InstantBlueTM Coomasie® stain (Abcam), destained, and imaged using Bio-rad molecular imager.
Bio-rad Image Lab 6.1 was used to process the data.
In-cell target engagement
In-cell labeling by clickable probes […]
Gels were imaged for fluorescence using Bio-rad molecular imager and then stained for 15 min with InstantBlueTM Coomasie® stain (Abcam), destained, and imaged using Bio-rad molecular imager. […]
Transfected HEK293T cells at ~90% confluency were incubated for 30 min with a DMSO control or varying concentrations of OXFBD04 diluted in Opti-MEM media. […] Cells were then harvested, processed, and analysed using the previously described protocol above. […]

[2] = molecular target: T2, BRD4(1)^L94C (Homo sapiens, UniProt O60885, L94C); assay: Protein LCMS labeling assay 1; type: binding
T2 construct: Characterization of His6-BRD4(1)L94C; made in house; host or cells: E. coli BL21 (DE3)
Description: The resulting library of 22 fragments was screened for BRD4(1)^L94C binding at a concentration of 50 μM using a protein LCMS assay (referred to as “labeling assay 1”). […] To assess the selectivity of the fragments for the labeling of C94, hits were also screened against BRD4(1)^WT under the same conditions. […] The acrylamide-based fragment, 12, labeled 98% of BRD4(1)^L94C after 4 h. While 95% of the protein was labeled once, 3% of the protein was labeled twice (Figure 5D). […] Fragment 14, designed by appending a β-dimethylaminomethyl acrylamide to the structure of 12, led to 74% of singly labeled BRD4(1)^L94C after 4 h with no labeling of BRD4(1)^WT observed (Table 1 and Figure 5E). […] However, only 9.9% of labeled BRD4(1)^L94C was observed, substantially lower than the 56% labeling observed for the corresponding 3-methyl regioisomer 10 (Table 1). […]
Assays were performed in 1.5 mL Eppendorf tubes at 37 °C and gently shaken, unless otherwise stated.
Experiments were performed in a protein LCMS assay buffer, with 10 µM protein, and 50 µM of the desired compound with a final DMSO concentration of 0.5% (Table S16). Time points were taken at 0, 1 and 4 h, unless otherwise stated, where a 20 µL sample of the reaction mix was taken, diluted with 100 µL Milli-Q water, and flash frozen. Samples were thawed immediately prior to LCMS analysis on a Waters Xevo G2-S system (Waters) fitted with a ProSwift™ RP-2H PSDVB Reversed Phase HPLC Column (Thermofisher). Data was analysed and processed using MassLynx. The total ion chromatograms (TIC) were extracted (region containing protein) and the summed scans were deconvoluted (using MaxEnt). Covalent labeling was calculated using intensities of the unlabeled and labeled protein (Equation 1). Figures were made using GraphPad Prism 7.0.
Table S16. Buffer composition for protein LCMS.
Buffer Reagent Composition Amount per 1 L
Protein LCMS Assay Buffer HEPES 25 mM 6.0 g
Protein Labelling = Intensity of Labelled Peak × 100

[3] = 50 μM compound, 10 µM protein, 37 °C, mean of three ± s.e.m., ND = not detectable

Labeled Protein (%) L94C 1 h [2, 3] | Labeled Protein (%) L94C 4 h ([2]; 50 μM compound, 10 µM protein, 37 °C, 4 h, mean of three ± s.e.m., ND = not detectable) | Second labeling event, share of total labeled protein ([2]; labeling assay 1, 50 μM) [%] | SMILES | Engagement of StrepII-tagged BRD4(1)^L94C versus BRD4(1)^WT by immunoprecipitation [1]
37% and 37 ± 1.2% | 82% and 82 ± 1.1% |  | C#CCOc1cc(NC(=O)C=C)ccc1N1CCCC1=O [Compound 42] | selective engagement of BRD4(1)^L94C
96 ± 0.2% |  | 3 | C#CCOc1ccc(-c2c(C)noc2NC(=O)C=C)cc1 [Compound 30] | 
